The text below walks through data of patent publication US5776932A, “1,3,5-tribsubstituted indazole derivatives, processes for preparing, and for pharmacological treatment therewith” (Arzneimittelwerk Dresden G.m.b.H., priority 1996, dated 1998).

Assay [1] has as its system SRS-A bronchoconstriction in guinea-pigs sensitized with ovalbumin. Briefly: SRS-A bronchoconstriction in anaesthetized, ovalbumin-sensitized guinea-pigs after inhalation of antigen. The note with it: -2 hrs, 1% OA, 20 inspirations. The assay is classed as in vivo. How it is done: For this purpose, guinea-pigs are actively sensitized against ovalbumin (OA) with 20 μg OA+20 mg Al(OH)3 in 0.5 ml, administered intraperitoneally (i.p.) and a booster dose of the same is administered 14 days later. One week after the booster dose, the animals are i.p. anaesthetized with urethane and connected to an apparatus (Mumed Physiological Recorder 800) for the determination of pulmonary function parameters. The animals are pretreated with mepyramine to antagonize the histamine, with indomethacin to inhibit the formation of prostaglandins, and with propanolol to eliminate β-adrenergic mechanisms. If an allergic reaction is induced after this treatment, the associated bronchospam is extensively attributable to the effect of leukotrienes.
Before the experiment the test substances were administered orally two hours before the challenge. After an equilibration period an asthmatic challenge attack is induced by the nebulization of a 1% ovalbumin solution over 20 inspirations.
The drop in dynamic compliance is used as a suitable and well reproducible parameter for characterizing the action of leukotrienes. Under control conditions, after pretreatment and ovalbumin challenge, guinea-pigs react with a slow drop in compliance of c. 30-40% over 15 minutes.

The subject of assay [2] is tracheal segments from actively sensitized guinea-pigs. Briefly: Inhibition of the antigen (ovalbumin)-induced contraction of isolated tracheal segments from actively sensitized guinea-pigs. Set-up: species or system guinea-pig. The note with it: Cavia porcellus, under mepyramine and indomethacin protection. As for the experimental part: For this purpose, isolated tracheal segments from guinea-pigs actively sensitized against ovalbumin by the s.c. administration of 10 μg of ovalbumin with 1 mg of aluminum hydroxide adjuvant, three weeks before removal of the organ, and a booster dose of the same amount of ovalbumin and aluminum hydroxide s.c. one week before removal of the organ. The segments were placed in organ baths filled with a nutrient solution aerated with carbogen which is a mixture of 95% oxygen and 5% carbon dioxide, and kept at 37° C., and were connected to isometric force transducers. After preincubation with mepyramine to eliminate histamine, and indomethacin for the inhibition of cyclooxygenase, 5×10^-7 mol/l carbachol (carbamylcholine chloride) was added and a contraction was induced. 10 μg/ml ovalbumin as an allergen was then added to the bath liquid and the maximum contraction of the tracheal segments which was thereby induced was correlated with the effect of the carbachol as control (=100%). The test substances were added to the organ bath 30 minutes before the allergen-induced contraction. Table 2 below indicates the IC50 values, i.e. the concentrations which cause a 50% inhibition of the contraction of isolated tracheal segments from the guinea-pig. The IC50 values were determined by testing 3-4 concentrations on 4-8 organs in each case.

Assay [3] has as its target T1, arachidonate-5-lipoxygenase (Rattus norvegicus, UniProt P12527).
T1 construct: using prepared macrophages from Wistar rats; endogenous in cells; host or cells: prepared macrophages from Wistar rats
T1 sequence (P12527 1-673): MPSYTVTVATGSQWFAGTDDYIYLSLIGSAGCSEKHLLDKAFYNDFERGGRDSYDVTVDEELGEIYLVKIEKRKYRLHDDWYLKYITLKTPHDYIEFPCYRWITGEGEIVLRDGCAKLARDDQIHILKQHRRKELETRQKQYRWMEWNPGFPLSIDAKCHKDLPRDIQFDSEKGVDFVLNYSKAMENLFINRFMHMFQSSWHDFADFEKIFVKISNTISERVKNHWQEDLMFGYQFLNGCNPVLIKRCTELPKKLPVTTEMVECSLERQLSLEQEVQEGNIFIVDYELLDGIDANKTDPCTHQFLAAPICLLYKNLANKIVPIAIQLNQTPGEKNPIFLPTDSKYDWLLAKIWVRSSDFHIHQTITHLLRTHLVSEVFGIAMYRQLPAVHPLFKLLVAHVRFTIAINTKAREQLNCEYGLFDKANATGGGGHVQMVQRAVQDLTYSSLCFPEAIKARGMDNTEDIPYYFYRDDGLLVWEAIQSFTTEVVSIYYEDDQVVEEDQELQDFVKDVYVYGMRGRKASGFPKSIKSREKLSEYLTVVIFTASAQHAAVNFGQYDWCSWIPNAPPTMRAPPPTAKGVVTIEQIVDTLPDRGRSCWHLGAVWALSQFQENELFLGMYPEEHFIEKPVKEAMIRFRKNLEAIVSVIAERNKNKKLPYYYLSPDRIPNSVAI
Briefly: Inhibition of 5-lipoxygenase in prepared macrophages from Wistar rats. The note with it: quadruple determinations, mean IC50, read-out: IC50 (50% inhibition of 5-lipoxygenase). The assay is classed as cell-based. From the text: Murphy, R. C. and Matthews, W. R., Purification and Characterization of Leukotrienes from Mastocytoma Cells, Methods in Enzymology, 86, pp. 409-416.
Argentiere, D. D., Ritchie, D. M. et al., Tepoxalin: A Dual Cyclooxygenase/5-Lipoxygenase Inhibitor of Arachidonic Acid Metabolism with Potent Anti-inflammatory Activity and a Favorable Gastrointestinal Profile, The Journal of Pharmacology and Experimental Therapeutics, Vol. 271, No. 3, 1399-1408, 1994.
Carter, G. W., Young, P. R. et al., 5-Lipoxygenase Inhibitory activity of Zileuton, The Journal of Pharmacology and Experimental Therapeutics, Vol. 256, No. 3, 1991.
The experiments were all conducted as quadruple determinations, by combining four partial experiments in each case were combined to determine the mean IC50 value.

Another assay deals with late phase eosinophilia. Briefly: Inhibition of late phase eosinophilia 24 hours after the inhalational ovalbumin challenge on actively sensitized guinea-pigs. The assay is classed as in vivo. To be noted: -2 h; for EOS, B (eosinophils in the group treated with the substance, with challenge): x ± s. From the text:
Eosinophilic granulocytes play an important part in the transition of allergic diseases, e.g. bronchial asthma, to the chronic stage. Thus the bronchoalveolar lavage fluid (BAL) contains an increased number of eosinophils a few hours after an allergen-induced asthmatic attack. Eosinophils are expected to play an important part in cell damage since they contain histotoxic proteins, like major basic protein (MBP) and eosinophil cation protein (ECP), in their granula. It is also assumed that substances which prevent the infiltration of eosinophils have a therapeutic action against allergic diseases like bronchial asthma.
The inhibition of eosinophil infiltration by the substances was tested in vivo on guinea-pigs actively sensitized against ovalbumin by the substantenous administration of 10 μg of OA, with 1 μg of aluminum hydroxide adjuvant, three weeks before the beginning of the experiment, and a booster dose containing the same amount of OA and aluminum hydroxide was administrated substantaneously one week before the beginning of the experiment. Three weeks after the first sensitization, the animals were placed in a plastic box and exposed to an aerosol of 0.5% OA dissolved in a physiological saline solution. The nebulization time was 20-30 seconds. After 24 hours the animals were intraperitoneally anaesthetized with 1.5 g/kg body weight ethylurethane and a bronchioalveolar lavage was performed with 2×5 ml of physiological saline solution. The lavage fluid was collected and centrifuged at 400 G for 10 minutes and the cell pellet was then resuspended in 1 ml of physiological saline solution. The eosinophils were microscopically counted in a Neubauer chamber after staining using the No. 5877 Becton-Dickinson test kit for eosinophilia. The number of eosinophils was indicated in millions per animal. Each test was also carried out with two control groups with and without antigen challenge.
The percentage inhibition of the eosinophilia in the experimental groups treated with the substance is calculated by the following formula:
(A-C)-(B-C)/(A-C)×100=% inhibition
The test substances were administered orally or intraperitoneally as a triturate in 0.5% 5-hydroxyethylcellulose two hours before the antigen challenge.

The structures appear in SMILES notation.

Take `COc1ccc2c(c1)c(O)nn2Cc1ccc(Cl)c(Cl)c1` [Example 6, 1-(3,4-dichlorobenzyl)-5-methoxy-1H-indazole-3-ol]: the “% drop in dyn. compliance” value was found to be 25 ± 9.9% in assay [1] (5.0 mg/kg oral) and 7.0 ± 2.7% in assay [1] (10.0 mg/kg oral). The “% inhibition” value in assay [1] (5.0 mg/kg oral) is listed as 38%; in assay [1] (10.0 mg/kg oral), 83%. In addition, in assay [2] (at 3.0 μmol/l, read-out: maximum inhibition (ovalbumin-induced contraction)), the inhibition at 3 µM was found to be 40%. Besides, in assay [3], the IC50 was 410 nM. Also, the “% inhibition (eosinophilia)” value in the assay on late phase eosinophilia (1 mg/kg i.p.) is on record as 58.8%; in the assay with late phase eosinophilia (30 mg/kg p.o.), 40.4%. For the same compound, the “EOS, B (eosinophils in the group treated with the substance, with challenge)” value with late phase eosinophilia (1 mg/kg i.p.) turned out to be 2.9 ± 1.2 mill./animal; in the assay with late phase eosinophilia (30 mg/kg p.o.) it was 3.5 ± 1.7 mill./animal.

`COc1ccc2c(c1)c(O)nn2Cc1ccc(OCc2ccc3ccccc3n2)cc1` [Example 50]: the “% drop in dyn. compliance” value in assay [1] (5.0 mg/kg oral) is listed as 22 ± 10%; in assay [1] (10.0 mg/kg oral), 12 ± 11%. Also, the “% inhibition” value came out at 45% in assay [1] (5.0 mg/kg oral) and 70% in assay [1] (10.0 mg/kg oral). The IC50 in assay [2] (carbachol = 100%) worked out at 2900 nM; in assay [3] it was 44 nM. Further, the “% inhibition (eosinophilia)” value in the assay on late phase eosinophilia (10 mg/kg i.p.) was found to be 46.0%; with late phase eosinophilia (30 mg/kg p.o.) it was 34.0%. In addition, the results for the “EOS, B (eosinophils in the group treated with the substance, with challenge)” value with late phase eosinophilia (10 mg/kg i.p.) and in the assay with late phase eosinophilia (30 mg/kg p.o.) were 3.8 ± 2.8 mill./animal and 6.0 ± 3.4 mill./animal, respectively.
